Results published in PubChem BioAssay AID330 (DTP/NCI, 2004).
“And” between values parts separate entries of the source, which are not always exact repeats. Identical values can stand only once. Toxic doses and inconclusive results are not listed. How the source made its calls: active means survival T/C of 150% or more; inactive means T/C below 125% in these data.

Tested on: P388 leukemia ip, CD2F1 mice, survival T/C
Assay: NCI In Vivo Anticancer Drug Screen. Data for tumor model P388 Leukemia (intraperitoneal) in CD2F1 (CDF1) mice
Conditions: endpoint: median survival time, higher = longer survival
Method in brief: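 Mice carrying the transplanted tumor received test compound or vehicle. Survival was recorded in each group, and the value is the treated-group measurement divided by that of the vehicle-treated control group.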

[1] = dose: 25.0 mg/kg/injection, schedule: Q01DX009 (ip), vehicle: saline with Tween-80
[2] = dose: 50.0 mg/kg/injection, schedule: Q01DX009 (ip), vehicle: saline with Tween-80
[3] = dose: 50.0 mg/kg/injection, schedule: Q01DX005 (ip), vehicle: Klucel (hydroxypropylcellulose) (HPC)
[4] = dose: 100.0 mg/kg/injection, schedule: Q01DX005 (ip), vehicle: Klucel (hydroxypropylcellulose) (HPC)
[5] = dose: 200.0 mg/kg/injection, schedule: Q01DX005 (ip), vehicle: Klucel (hydroxypropylcellulose) (HPC)
[6] = dose: 100.0 mg/kg/injection, schedule: Q01DX009 (ip), vehicle: saline with Tween-80
[7] = dose: 100.0 mg/kg/injection, schedule: Q04DX003 (ip), vehicle: saline with Tween-80
[8] = dose: 200.0 mg/kg/injection, schedule: Q04DX003 (ip), vehicle: saline with Tween-80
[9] = dose: 50.0 mg/kg/injection, schedule: Q01DX005 (ip), vehicle: saline
[10] = dose: 100.0 mg/kg/injection, schedule: Q01DX005 (ip), vehicle: saline
[11] = dose: 50.0 mg/kg/injection, schedule: Q01DX009 (ip), vehicle: saline

Measured: T/C

C[N+]1=C(/C=C/Nc2ccc3ccc4cccc5ccc2c3c45)C(C)(C)c2ccccc21
inactive: dose: 6.25 mg/kg/injection, schedule: Q01DX009 (ip), vehicle: saline with Tween-80 108 % of control | dose: 12.5 mg/kg/injection, schedule: Q01DX009 (ip), vehicle: saline with Tween-80 100 % of control | [1] 105 % of control | [2] 89 % of control

N#CC(NCC1(O)CCCCC1)C(O)c1ccccc1 (configuration not stated)
inactive: dose: 25.0 mg/kg/injection, schedule: Q01DX009 (ip), vehicle: suspension in saline 94 % of control | dose: 50.0 mg/kg/injection, schedule: Q01DX009 (ip), vehicle: suspension in saline 108 % of control | dose: 100.0 mg/kg/injection, schedule: Q01DX009 (ip), vehicle: suspension in saline 109 % of control

Cc1cc(=O)c(C(=O)NC=O)c(C)o1
inactive: [3] 99 % of control | [4] 101 % of control | [5] 117 % of control

CC(=O)c1nc(-c2ccccc2)[nH]c1C
inactive: [1] 101 % of control | [2] 104 % of control | [6] 105 % of control | [7] 99 % of control | [8] 90 % of control

CC(C)COP(=O)(OCC(C)C)OCC(C)C.CC(C)COP(=O)(OCC(C)C)OCC(C)C.CC(C)COP(=O)(OCC(C)C)OCC(C)C.CC(C)COP(=O)(OCC(C)C)OCC(C)C.O.O.[Co+2].[O-][Cl+3]([O-])([O-])O
inactive: dose: 25.0 mg/kg/injection, schedule: Q04DX003 (ip), vehicle: saline with Tween-80 94 % of control | dose: 50.0 mg/kg/injection, schedule: Q04DX003 (ip), vehicle: saline with Tween-80 99 % of control | [7] 114 % of control and 116 % of control

O=CC(CO)CC(C=O)n1cnc2c(=O)[nH]cnc21 (configuration not stated)
active: dose: 150.0 mg/kg/injection, schedule: Q01DX005 (ip), vehicle: saline 155 % of control and 158 % of control | dose: 300.0 mg/kg/injection, schedule: Q01DX005 (ip), vehicle: saline 165 % of control and 174 % of control

CC(=O)OC1C2=C(C)C(=O)OC2=CC2=CCCC(C)C21C (configuration not stated)
inactive: dose: 4.0 mg/kg/injection, schedule: Q01DX009 (ip), vehicle: Klucel (hydroxypropylcellulose) (HPC) 102 % of control | dose: 8.0 mg/kg/injection, schedule: Q01DX009 (ip), vehicle: Klucel (hydroxypropylcellulose) (HPC) 91 % of control | dose: 16.0 mg/kg/injection, schedule: Q01DX009 (ip), vehicle: Klucel (hydroxypropylcellulose) (HPC) 102 % of control | dose: 32.0 mg/kg/injection, schedule: Q01DX009 (ip), vehicle: Klucel (hydroxypropylcellulose) (HPC) 109 % of control

c1ccc2c(N3CCCCC3)ncnc2c1
inactive: [9] 107 % of control | [10] 100 % of control

CC(O[Si](C)(C)C(C)(C)C)C(=O)Sc1ccccn1 (configuration not stated)
inactive: dose: 60.0 mg/kg/injection, schedule: Q01DX005 (ip), vehicle: saline with Tween-80 102 % of control | dose: 120.0 mg/kg/injection, schedule: Q01DX005 (ip), vehicle: saline with Tween-80 103 % of control

CCC(C)(C(=O)Nc1ccc2nc(C)cc(N)c2c1)C(=O)Nc1ccc2nc(C)cc(N)c2c1
inactive: dose: 50.0 mg/kg/injection, schedule: Q01DX005 (ip), vehicle: saline with Tween-80 87 % of control | dose: 100.0 mg/kg/injection, schedule: Q01DX005 (ip), vehicle: saline with Tween-80 96 % of control | dose: 200.0 mg/kg/injection, schedule: Q01DX005 (ip), vehicle: saline with Tween-80 100 % of control

C=C=C(C)C(c1ccccc1)N(C)C (configuration not stated)
inactive: [9] 108 % of control | [10] 109 % of control

COc1c(C(C)C)cc2c(c1OC)C13CCCC(C)(C)C1C(OC3=O)C2NC(=O)C(C)N(C)C (configuration not stated)
inactive: dose: 12.5 mg/kg/injection, schedule: Q01DX009 (ip), vehicle: saline 100 % of control | dose: 25.0 mg/kg/injection, schedule: Q01DX009 (ip), vehicle: saline 98 % of control | [11] 100 % of control

O=[N+]([O-])c1c(Nc2ccccc2)ncnc1Nc1ccccc1
inactive: [7] 105 % of control | [8] 106 % of control | dose: 400.0 mg/kg/injection, schedule: Q04DX003 (ip), vehicle: saline with Tween-80 100 % of control

O=C1C2C3C=CC(C2C(=O)N1CO)C1C2C(=O)N(CO)C(=O)C2C31 (configuration not stated)
inactive: dose: 12.5 mg/kg/injection, schedule: Q01DX009 (ip), vehicle: water 105 % of control
active: dose: 25.0 mg/kg/injection, schedule: Q01DX009 (ip), vehicle: water 157 % of control | [2] 195 % of control | dose: 50.0 mg/kg/injection, schedule: Q01DX009 (ip), vehicle: water 208 % of control

Cc1ccc(S(=O)CC2=NC(C)(C)CO2)cc1 (configuration not stated)
inactive: [9] 104 % of control | [10] 98 % of control | dose: 200.0 mg/kg/injection, schedule: Q01DX005 (ip), vehicle: saline 103 % of control

NC(=S)c1ccccc1[N+](=O)[O-]
inactive: dose: 25.0 mg/kg/injection, schedule: Q01DX001 (ip), vehicle: saline 104 % of control | dose: 25.0 mg/kg/injection, schedule: Q01DX001 (ip), vehicle: suspension in saline 101 % of control | dose: 50.0 mg/kg/injection, schedule: Q01DX001 (ip), vehicle: saline 104 % of control | dose: 50.0 mg/kg/injection, schedule: Q01DX001 (ip), vehicle: suspension in saline 100 % of control | dose: 100.0 mg/kg/injection, schedule: Q01DX001 (ip), vehicle: saline 101 % of control and 104 % of control | dose: 100.0 mg/kg/injection, schedule: Q01DX001 (ip), vehicle: suspension in saline 102 % of control | dose: 200.0 mg/kg/injection, schedule: Q01DX001 (ip), vehicle: suspension in saline 101 % of control

COc1cc2c(cc1OC)C1Cc3ccc4cc(OC)c(OC)cc4c3CN1CC2 (configuration not stated)
inactive: [1] 90 % of control | [2] 100 % of control | [6] 95 % of control

NNS(=O)(=O)c1ccc2ccccc2c1
inactive: dose: 12.5 mg/kg/injection, schedule: Q01DX009 (ip), vehicle: other 102 % of control | dose: 25.0 mg/kg/injection, schedule: Q01DX009 (ip), vehicle: other 102 % of control and 86 % of control | dose: 50.0 mg/kg/injection, schedule: Q01DX009 (ip), vehicle: other 86 % of control | dose: 100.0 mg/kg/injection, schedule: Q01DX009 (ip), vehicle: other 102 % of control and 95 % of control | dose: 200.0 mg/kg/injection, schedule: Q01DX009 (ip), vehicle: other 101 % of control and 95 % of control

O=C1CS(=O)(=O)CN1c1ccc(Cl)c(Cl)c1
inactive: dose: 50.0 mg/kg/injection, schedule: Q01DX005 (ip), vehicle: acetone 112 % of control | dose: 100.0 mg/kg/injection, schedule: Q01DX005 (ip), vehicle: acetone 109 % of control | dose: 200.0 mg/kg/injection, schedule: Q01DX005 (ip), vehicle: acetone 109 % of control

C1CCC2(CC1)NCCO2
inactive: dose: 25.0 mg/kg/injection, schedule: Q01DX005 (ip), vehicle: suspension in saline 98 % of control | dose: 50.0 mg/kg/injection, schedule: Q01DX005 (ip), vehicle: suspension in saline 93 % of control | dose: 100.0 mg/kg/injection, schedule: Q01DX005 (ip), vehicle: suspension in saline 94 % of control | dose: 200.0 mg/kg/injection, schedule: Q01DX005 (ip), vehicle: suspension in saline 109 % of control | dose: 400.0 mg/kg/injection, schedule: Q01DX005 (ip), vehicle: suspension in saline 98 % of control

CN(C)c1ccc(/C=N/NC(=O)c2ccccc2NC(=O)c2ccccc2Cl)cc1
inactive: dose: 7.5 mg/kg/injection, schedule: Q01DX005 (ip), vehicle: Klucel (hydroxypropylcellulose) (HPC) 86 % of control | dose: 15.0 mg/kg/injection, schedule: Q01DX005 (ip), vehicle: Klucel (hydroxypropylcellulose) (HPC) 86 % of control

C=C1C(=O)OC2CC(C)/C=C\C(=O)C(C)(O)C(O)C(O)C12 (configuration not stated) (tested in a mixture with another compound)
inactive: dose: 12.5 mg/kg/injection, schedule: Q01DX001 (ip), vehicle: Klucel (hydroxypropylcellulose) (HPC) 113 % of control | dose: 25.0 mg/kg/injection, schedule: Q01DX001 (ip), vehicle: Klucel (hydroxypropylcellulose) (HPC) 105 % of control

CN=S(=O)(OCCCCCOS(=O)(=NC)c1ccccc1)c1ccccc1 (configuration not stated)
active: dose: 200.0 mg/kg/injection, schedule: Q01DX009 (ip), vehicle: saline with Tween-80 158 % of control and 170 % of control
inactive: [2] 124 % of control

CC(C)=CC1C(C(=O)OCc2ccc3c(c2)OCO3)C1(C)C (configuration not stated)
inactive: [11] 107 % of control | dose: 100.0 mg/kg/injection, schedule: Q01DX009 (ip), vehicle: saline 93 % of control | dose: 200.0 mg/kg/injection, schedule: Q01DX009 (ip), vehicle: saline 99 % of control | dose: 400.0 mg/kg/injection, schedule: Q01DX009 (ip), vehicle: saline 104 % of control

Cc1cn(C23CC4CC(CC(C4)C2)C3)c(=O)[nH]c1=O
inactive: [3] 101 % of control | [4] 101 % of control | [5] 97 % of control
